ChEMBL document CHEMBL1156812, “Novel synthesis of the hexahydroimidazo[1,5b]isoquinoline scaffold: application to the synthesis of glucocorticoid receptor modulators” (J Med Chem, 2010)

Experiments:
Glucocorticoid receptor [1] = biological target: T1, Glucocorticoid receptor (Homo sapiens, UniProt P04150); assay: Displacement of GS-red from human glucocorticoid receptor by fluorescent polarization assay
T1 sequence (P04150 whole entry): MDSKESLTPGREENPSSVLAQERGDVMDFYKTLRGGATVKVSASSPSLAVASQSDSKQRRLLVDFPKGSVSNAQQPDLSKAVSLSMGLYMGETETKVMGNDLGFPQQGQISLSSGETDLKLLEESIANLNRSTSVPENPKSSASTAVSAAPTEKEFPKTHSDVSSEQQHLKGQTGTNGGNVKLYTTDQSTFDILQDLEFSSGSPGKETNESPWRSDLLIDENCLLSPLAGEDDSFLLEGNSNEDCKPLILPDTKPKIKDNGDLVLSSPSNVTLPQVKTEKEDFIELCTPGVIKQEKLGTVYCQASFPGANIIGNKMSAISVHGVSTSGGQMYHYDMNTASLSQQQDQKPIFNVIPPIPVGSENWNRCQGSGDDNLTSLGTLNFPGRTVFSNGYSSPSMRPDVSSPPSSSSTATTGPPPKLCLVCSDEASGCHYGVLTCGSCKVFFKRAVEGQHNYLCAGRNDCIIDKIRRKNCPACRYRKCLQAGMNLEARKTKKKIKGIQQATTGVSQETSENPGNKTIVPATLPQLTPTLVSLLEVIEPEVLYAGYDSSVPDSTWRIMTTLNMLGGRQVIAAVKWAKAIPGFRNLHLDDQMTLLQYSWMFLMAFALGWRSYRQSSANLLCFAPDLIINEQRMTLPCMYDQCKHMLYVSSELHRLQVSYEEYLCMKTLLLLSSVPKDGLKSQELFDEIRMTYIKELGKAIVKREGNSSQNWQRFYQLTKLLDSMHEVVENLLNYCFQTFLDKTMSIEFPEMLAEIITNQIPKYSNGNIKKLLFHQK

Glucocorticoid receptor [2] = biological target: T1, Glucocorticoid receptor; assay: Transrepression activity at glucocorticoid receptor expressed in human A549 cells assessed as inhibition of PMA-induced AP1 activity after 6 hrs by luciferase reporter gene assay; assay type: cell-based
Glucocorticoid receptor [3] = biological target: T1, Glucocorticoid receptor; assay: Transrepression activity at glucocorticoid receptor expressed in human A549 cells assessed as inhibition of IL-1-beta-induced NF-kappaB dependent E-selection promoter activation after 6 hrs by luciferase reporter gene based ELAM assay; assay type: cell-based
Glucocorticoid receptor [4] = biological target: T1, Glucocorticoid receptor; assay: Transactivation of GAL-4 tagged glucocorticoid receptor ligand binding domain expressed in human HeLa cells assessed as NP1 activation by luciferase reporter gene assay; assay type: cell-based
Androgen receptor = biological target: T2, Androgen receptor (Homo sapiens, UniProt P10275); assay: Binding affinity to androgen receptor
T2 sequence (P10275 whole entry): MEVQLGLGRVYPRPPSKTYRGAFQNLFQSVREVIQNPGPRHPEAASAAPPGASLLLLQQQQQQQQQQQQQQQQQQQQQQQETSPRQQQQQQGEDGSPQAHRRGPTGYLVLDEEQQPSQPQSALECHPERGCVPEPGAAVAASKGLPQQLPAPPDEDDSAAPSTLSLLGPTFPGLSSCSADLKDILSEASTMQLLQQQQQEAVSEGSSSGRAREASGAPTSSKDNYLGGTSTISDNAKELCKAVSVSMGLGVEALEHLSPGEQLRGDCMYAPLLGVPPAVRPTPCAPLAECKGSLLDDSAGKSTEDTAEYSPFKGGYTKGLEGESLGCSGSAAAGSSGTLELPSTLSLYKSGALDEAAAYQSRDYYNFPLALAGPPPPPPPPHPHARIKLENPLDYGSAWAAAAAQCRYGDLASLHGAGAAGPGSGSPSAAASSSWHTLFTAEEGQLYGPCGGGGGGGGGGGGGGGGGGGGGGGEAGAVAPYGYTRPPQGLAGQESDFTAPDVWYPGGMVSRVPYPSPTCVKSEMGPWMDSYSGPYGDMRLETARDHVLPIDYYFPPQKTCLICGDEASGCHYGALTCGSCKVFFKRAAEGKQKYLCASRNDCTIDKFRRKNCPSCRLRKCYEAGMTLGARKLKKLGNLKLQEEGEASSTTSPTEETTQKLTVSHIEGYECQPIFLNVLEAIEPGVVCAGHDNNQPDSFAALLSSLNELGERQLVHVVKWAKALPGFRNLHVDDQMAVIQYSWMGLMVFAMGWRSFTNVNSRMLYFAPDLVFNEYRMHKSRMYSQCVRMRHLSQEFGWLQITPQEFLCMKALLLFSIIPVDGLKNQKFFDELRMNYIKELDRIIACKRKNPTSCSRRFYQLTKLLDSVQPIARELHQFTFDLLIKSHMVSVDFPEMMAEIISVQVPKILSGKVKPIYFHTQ

Progesterone receptor = biological target: T3, Progesterone receptor (Homo sapiens, UniProt P06401); assay: Binding affinity to progesterone receptor
T3 sequence (P06401 whole entry): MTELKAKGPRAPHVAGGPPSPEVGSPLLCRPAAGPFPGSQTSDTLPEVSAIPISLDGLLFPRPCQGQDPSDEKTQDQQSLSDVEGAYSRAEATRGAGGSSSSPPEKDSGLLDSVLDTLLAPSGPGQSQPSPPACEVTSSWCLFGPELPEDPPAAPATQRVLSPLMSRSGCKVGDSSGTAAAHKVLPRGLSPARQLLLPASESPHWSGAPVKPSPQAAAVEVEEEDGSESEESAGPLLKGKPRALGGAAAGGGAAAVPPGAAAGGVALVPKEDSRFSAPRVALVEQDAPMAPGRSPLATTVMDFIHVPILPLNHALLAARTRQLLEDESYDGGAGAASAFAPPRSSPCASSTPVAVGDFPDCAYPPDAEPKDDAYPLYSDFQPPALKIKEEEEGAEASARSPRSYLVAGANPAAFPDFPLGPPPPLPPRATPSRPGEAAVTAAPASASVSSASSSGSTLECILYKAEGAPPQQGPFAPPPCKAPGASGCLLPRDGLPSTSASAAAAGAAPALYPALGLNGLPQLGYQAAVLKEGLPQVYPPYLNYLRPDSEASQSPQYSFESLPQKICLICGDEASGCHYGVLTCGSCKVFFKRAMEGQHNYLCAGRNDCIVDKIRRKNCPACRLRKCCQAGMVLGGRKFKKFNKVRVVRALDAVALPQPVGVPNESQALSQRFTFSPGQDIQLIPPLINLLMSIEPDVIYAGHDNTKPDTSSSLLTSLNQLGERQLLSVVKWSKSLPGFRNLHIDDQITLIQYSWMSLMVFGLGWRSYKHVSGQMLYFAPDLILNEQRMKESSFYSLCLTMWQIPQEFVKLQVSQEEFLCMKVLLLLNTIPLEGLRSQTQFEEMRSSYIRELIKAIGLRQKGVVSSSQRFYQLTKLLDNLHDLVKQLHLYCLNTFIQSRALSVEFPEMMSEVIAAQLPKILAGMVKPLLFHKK

[5] = Metabolic stability in human liver microsomes assessed as compound remaining at 3 uM after 10 mins; assay type: ADME, Microsome; conditions: read-out: Stability
[6] = Metabolic stability in rat liver microsomes assessed as compound remaining at 3 uM after 10 mins; assay type: ADME, Microsome; conditions: read-out: Stability
[7] = Metabolic stability in mouse liver microsomes assessed as compound remaining at 3 uM after 10 mins; assay type: ADME, Microsome; conditions: read-out: Stability

Row | SMILES | Ki (Glucocorticoid receptor [1]) | EC50 (Glucocorticoid receptor [2]) | EC50 (Glucocorticoid receptor [3]) | EC50 (Glucocorticoid receptor [4]) | IC50 (Androgen receptor) | Ki (Progesterone receptor) | remaining at 10 min, 3 µM [5] | remaining at 10 min, 3 µM [6] | remaining at 10 min, 3 µM [7]
1 | Cc1ccsc1[C@@](C)(O)[C@H]1CCCC2=Cc3c(-c4ccc(F)cc4)ncn3C[C@@]21C | 2 nM | 29 nM | 30 nM | 380 nM | > 4000 nM | 132 nM | 3% | 2% | 21%
2 | C[C@]12Cn3cnc(-c4ccc(F)cc4)c3C=C1CCC[C@@H]2[C@](C)(O)c1ccc(Cl)cc1 | 2 nM | 7.5 nM | 19 nM | 697 nM | > 4000 nM | 238 nM | 56% | 51% | 73%
3 | C[C@]12Cn3cnc(-c4ccc(F)cc4)c3C=C1CCC[C@@H]2[C@](C)(O)c1ccc(Cl)s1 | 4 nM | 11 nM | 11 nM | 253 nM | > 4000 nM | 409 nM |  |  | 
